In brackets after ≈: the same amount, converted by molar mass.
Experiments:
Candida albicans [1] = experiment: microbe, parasite or virus in culture; format: functional
Description: Antifungal activity against Candida albicans 607

Candida albicans [2] = experiment: microbe, parasite or virus in culture; format: functional; conditions: CBS 562
Description: Antifungal activity against Candida albicans CBS 562

Candida albicans [3] = experiment: microbe, parasite or virus in culture; format: functional; remark: listed apart in the source
Description: Antifungal activity against Candida albicans 615

Aspergillus fumigatus = experiment: microbe, parasite or virus in culture; format: functional; conditions: ATCC 64026
Description: Antifungal activity against Aspergillus fumigatus ATCC 64026

Pichia kudriavzevii [4] = experiment: microbe, parasite or virus in culture; format: functional
Description: Antifungal activity against Candida krusei 603

Pichia kudriavzevii [5] = experiment: microbe, parasite or virus in culture; format: functional; remark: listed apart in the source
Description: Antifungal activity against Candida krusei 638

Nakaseomyces glabratus [6] = experiment: microbe, parasite or virus in culture; format: functional
Description: Antifungal activity against Candida glabrata 648

Nakaseomyces glabratus [7] = experiment: microbe, parasite or virus in culture; format: functional; remark: listed apart in the source
Description: Antifungal activity against Candida glabrata 566

Nakaseomyces glabratus [8] = experiment: microbe, parasite or virus in culture; format: functional; remark: listed apart in the source
Description: Antifungal activity against Candida glabrata 572

Nakaseomyces glabratus [9] = experiment: microbe, parasite or virus in culture; format: functional; remark: listed apart in the source
Description: Antifungal activity against Candida glabrata 578

[10] = Toxicity in ICR mouse at 1 to 2 mg/ml, iv after 8 days; conditions: in vivo
Nakaseomyces glabratus [11] = experiment: microbe, parasite or virus in culture; format: functional; remark: listed apart in the source
Description: Antifungal activity against Candida glabrata 646

Structure (SMILES): CN(C)CCCCCCCCCCN(C)C.N#CBBr.N#CBBr
- MIC (Candida albicans [1]): 140 µM
- MIC (Candida albicans [2]): 140 µM
- MIC (Candida albicans [3]): 140 µM

Structure (SMILES): BC#N.CN(C)C
- MIC (Aspergillus fumigatus): > 5100 µM
- MIC (Candida albicans [1]): > 5100 µM
- MIC (Candida albicans [2]): 5100 µM
- MIC (Candida albicans [3]): > 5100 µM

Structure (SMILES): CCCCCCCCCCCN(C)C.N#CB(Br)Br
- MIC (Pichia kudriavzevii [4]): 10.1 µM
- MIC (Pichia kudriavzevii [5]): 10.1 µM
- MIC (Aspergillus fumigatus): 79 µM
- MIC (Nakaseomyces glabratus [6]): 20.2 µM
- MIC (Nakaseomyces glabratus [7]): 20.2 µM
- MIC (Candida albicans [1]): 39 µM
- MIC (Candida albicans [2]): 39 µM
- MIC (Nakaseomyces glabratus [8]): 40.4 µM
- MIC (Nakaseomyces glabratus [9]): 40.4 µM
- MTD at 192 h [10]: 73.1 µmol/kg
- MIC (Nakaseomyces glabratus [11]): 20.2 µM
- MIC (Candida albicans [3]): 39 µM

Structure (SMILES): CN(C)CCCCCCCCCCN(C)C.N#CB(Br)Br.N#CB(Br)Br
- MIC (Candida albicans [1]): 104 µM
- MIC (Candida albicans [2]): 104 µM
- MIC (Candida albicans [3]): 104 µM

Structure (SMILES): BC(=O)O.BC(=O)O.CN(C)CCCCCCCCCCN(C)C
- MIC (Candida albicans [1]): 188 µM
- MIC (Candida albicans [2]): 188 µM
- MIC (Candida albicans [3]): 907 µM

Structure (SMILES): CCCCCCCCCCCN(C)C.N#CBF
- MIC (Aspergillus fumigatus): 129 µM
- MIC (Candida albicans [1]): 64 µM
- MIC (Candida albicans [2]): 64 µM
- MIC (Candida albicans [3]): 64 µM

Structure (SMILES): CCCCCCCCCCCN(C)C.N#CBBr
- MIC (Aspergillus fumigatus): 131 µM
- MIC (Candida albicans [1]): 49 µM
- MIC (Candida albicans [2]): 49 µM
- MIC (Candida albicans [3]): 49 µM

Structure (SMILES): C[C@@H]1[C@H](O)[C@@H](C)/C=C/C=C/C=C/C=C/C=C/C=C/C=C/[C@H](O[C@@H]2O[C@H](C)[C@@H](O)[C@H](N)[C@@H]2O)C[C@@H]2O[C@](O)(C[C@@H](O)C[C@@H](O)[C@H](O)CC[C@@H](O)C[C@@H](O)CC(=O)O[C@H]1C)C[C@H](O)[C@H]2C(=O)O [AMPHOTERICIN B]
- MIC (Pichia kudriavzevii [4]): 4.32 µM (≈ 3.99 µg/mL)
- MIC (Pichia kudriavzevii [5]): 4.32 µM (≈ 3.99 µg/mL)
- MIC (Aspergillus fumigatus): 0.5 µM (≈ 0.462 µg/mL)
- MIC (Nakaseomyces glabratus [6]): 0.82 µM (≈ 0.758 µg/mL)
- MIC (Nakaseomyces glabratus [7]): 0.13 µM (≈ 0.12 µg/mL)
- MIC (Candida albicans [1]): 0.27 µM (≈ 0.25 µg/mL)
- MIC (Candida albicans [2]): 0.54 µM (≈ 0.499 µg/mL)
- MIC (Nakaseomyces glabratus [8]): 1.07 µM (≈ 0.989 µg/mL)
- MIC (Nakaseomyces glabratus [9]): 2.14 µM (≈ 1.98 µg/mL)
- MTD at 192 h [10]: 2.6 µmol/kg
- MIC (Nakaseomyces glabratus [11]): 0.41 µM (≈ 0.379 µg/mL)
- MIC (Candida albicans [3]): 0.27 µM (≈ 0.25 µg/mL)

Structure (SMILES): CN(C)C.N#CB(Br)Br [DIBROMOBORANECARBONITRILE; TRIMETHYLAMINE]
- MIC (Candida albicans [1]): > 1970 µM
- MIC (Candida albicans [2]): 1970 µM
- MIC (Candida albicans [3]): > 1970 µM

Structure (SMILES): BC#N.CCCCCCCCCCCCN(C)C [DODECYLDIMETHYLAMINE CYANOBORANE]
- MIC (Candida albicans [1]): 61 µM
- MIC (Candida albicans [2]): 61 µM
- MIC (Candida albicans [3]): 61 µM

Structure (SMILES): OC(Cn1cncn1)(Cn1cncn1)c1ccc(F)cc1F [FLUCONAZOLE]
- MIC (Pichia kudriavzevii [4]): 104 µM (≈ 32 µg/mL)
- MIC (Pichia kudriavzevii [5]): 104 µM (≈ 32 µg/mL)
- MIC (Aspergillus fumigatus): > 208 µM
- MIC (Candida albicans [1]): 1.6 µM (≈ 0.49 µg/mL)
- MIC (Candida albicans [2]): 1.6 µM (≈ 0.49 µg/mL)
- MIC (Nakaseomyces glabratus [8]): > 836 µM
- MIC (Nakaseomyces glabratus [9]): > 836 µM
- MIC (Nakaseomyces glabratus [11]): 52.2 µM (≈ 16 µg/mL)
- MIC (Candida albicans [3]): 1.6 µM (≈ 0.49 µg/mL)
